# Laboratory results as given in paper PMC9811466, “Structural Features Affecting the Interactions and Transportability of LAT1-Targeted Phenylalanine Drug Conjugates” (Molecular Pharmaceutics, 2022).
# Several values for one entry are separate records, joined by “and”; a condition that tells them apart may be missing. Identical values can stand only once. Like-named read-outs stand apart in the source and are kept apart here.
# Assays:
# HEK-MOCK cells [1] = assay: cis-inhibition of [14C]-L-leucine uptake in HEK-MOCK cells; assay type: cell-based, human; conditions: Homo sapiens, HEK-MOCK cells, known substrates
# Protocol: (§1) In the following experiments, the MCF-7, HEK-hLAT1, and HEK-MOCK cells were cultured, seeded, and preincubated as described above. The HBSS was removed, and the ability of the compounds to inhibit the uptake of a known LAT1 substrate, [^14C]-L-leucine (PerkinElmer, Waltham, MA, USA), was studied by incubating the cells at RT for 10 min in uptake buffer pH 7.4 (250 μL) containing 0.76 μM (0.1 mCi/mL) of [^14C]-L-leucine and 0.025–1800 μM of the studied compound (or HBSS as blank). After incubation, the reaction was stopped with ice-cold HBSS, and the cells were washed two times with ice-cold HBSS. The cells were then lysed with 250 μL of 0.1 M sodium hydroxide, the lysate was mixed with 1.0 mL of Emulsifier safe cocktail (PerkinElmer, Waltham, MA, USA), and the radioactivity was measured with a liquid scintillation counter (MicroBeta^2 counter, PerkinElmer, Waltham, MA, USA). The inhibition of [^14C]-L-leucine in the presence of the studied compounds as compared to the control (HBSS) was calculated as percentages (%).
# Using the stably hLAT1/4F2hc expressing cell line, the compounds’ inhibitory efficiencies and uptake kinetics were determined via the cis-inhibition assay and uptake studies, respectively. (Table 1) Cis-inhibition is based on the competition between the ligand and LAT1 substrate [^14C]-L-leucine that results in inhibition of substrate uptake. The competitive uptake with L-leucine is reported as the IC50 value of L-leucine uptake and extent as inhibition percentage (%) at a given concentration. Overall, the inhibition trends of the tested compounds were similar between HEK-hLAT1 and MCF-7 cells. In the next step, more straightforward results were obtained by undertaking direct cellular uptake studies with both HEK-hLAT1 and HEK-MOCK cells. This experiment enabled us to determine not only the uptake kinetics (Vmax and Km) of the ligands but also their preference for LAT1-expressing cells over the comparator HEK-MOCK cells.
# hLAT1/4F2hc [2] = target: T1, hLAT1/4F2hc (Homo sapiens, UniProt Q01650); assay: cis-inhibition of [14C]-L-leucine uptake in HEK-hLAT1 cells; assay type: cell-based; conditions: HEK-hLAT1 cells; for inhibition at 50 µM: read-out: [14C]-L-Leucine uptake inhibition % (50μM); for IC50: read-out: IC50 of [14C]-L-leucine uptake
# T1 construct: Invitrogen (host cells)
# T1 sequence (Q01650 whole entry): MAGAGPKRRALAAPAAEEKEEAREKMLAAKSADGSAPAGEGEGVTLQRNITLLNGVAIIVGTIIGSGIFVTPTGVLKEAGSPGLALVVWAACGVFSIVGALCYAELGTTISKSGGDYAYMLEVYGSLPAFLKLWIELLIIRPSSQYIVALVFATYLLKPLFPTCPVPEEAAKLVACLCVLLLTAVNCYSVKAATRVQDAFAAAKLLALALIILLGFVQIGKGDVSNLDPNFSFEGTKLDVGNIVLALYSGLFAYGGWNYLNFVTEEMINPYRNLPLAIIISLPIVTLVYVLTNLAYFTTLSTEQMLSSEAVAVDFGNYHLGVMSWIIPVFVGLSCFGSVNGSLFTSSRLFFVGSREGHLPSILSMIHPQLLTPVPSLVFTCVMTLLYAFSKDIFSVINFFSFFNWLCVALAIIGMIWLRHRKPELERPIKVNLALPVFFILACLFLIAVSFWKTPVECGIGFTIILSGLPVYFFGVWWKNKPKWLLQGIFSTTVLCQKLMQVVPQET
# T1 sequence (P08195 102-630 partner): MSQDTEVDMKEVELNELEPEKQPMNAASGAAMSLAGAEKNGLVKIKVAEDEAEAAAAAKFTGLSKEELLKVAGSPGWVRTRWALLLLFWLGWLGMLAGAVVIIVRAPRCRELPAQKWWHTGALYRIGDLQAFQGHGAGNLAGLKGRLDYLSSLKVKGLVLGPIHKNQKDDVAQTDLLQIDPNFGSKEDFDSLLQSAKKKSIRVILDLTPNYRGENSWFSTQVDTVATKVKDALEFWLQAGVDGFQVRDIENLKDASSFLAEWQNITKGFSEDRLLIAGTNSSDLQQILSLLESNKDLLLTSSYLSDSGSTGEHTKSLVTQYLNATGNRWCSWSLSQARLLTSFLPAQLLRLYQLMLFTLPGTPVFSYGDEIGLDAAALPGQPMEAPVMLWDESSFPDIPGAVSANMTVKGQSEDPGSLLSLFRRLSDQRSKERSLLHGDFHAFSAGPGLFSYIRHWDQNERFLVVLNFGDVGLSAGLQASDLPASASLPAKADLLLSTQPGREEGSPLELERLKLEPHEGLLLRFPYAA
# Protocol: as §1
# Using the stably hLAT1/4F2hc expressing cell line, the compounds’ inhibitory efficiencies and uptake kinetics were determined via the cis-inhibition assay and uptake studies, respectively. (Table 1) Cis-inhibition is based on the competition between the ligand and LAT1 substrate [^14C]-L-leucine that results in inhibition of substrate uptake. The competitive uptake with L-leucine is reported as the IC50 value of L-leucine uptake and extent as inhibition percentage (%) at a given concentration.
# HEK-MOCK cells [3] = assay: Concentration-dependent cellular uptake into HEK-MOCK cells; assay type: cell-based, human; conditions: for Vmax: 10 min
# Protocol: (§2) The concentrations for the compounds were in the range of 2–400 μM. Otherwise, the experiment was carried out as described above and analyzed by liquid chromatography coupled with an electrospray ionization (ESI) triple quadrupole mass spectrometer (LC–MS–MS). […]
# (§3) The concentration-dependent uptake studies were performed by adding 2–400 μM of the tested compound in 250 μL of prewarmed HBSS buffer on the cell layer. […] After incubation, the cells were washed and lysed as described above. The lysate was collected from wells into an Eppendorf tube and centrifuged at 4 °C, the supernatant was collected, and the intracellular concentrations of studied compounds were analyzed by liquid chromatography coupled with an ESI triple quadrupole mass spectrometer (LC–MS–MS). The results were calculated from the standard curve that was prepared by spiking known amounts of each compound to the cell lysate and normalized to protein concentration. The protein concentrations on each plate were determined as a mean of three samples by Bio-Rad Protein Assay, based on the Bradford dye-binding method, using BSA as a standard protein and measuring the absorbance (595 nm) by a multiplate reader (EnVision, PerkinElmer, Inc., Waltham, MA, USA). All statistical analyses (Michaelis–Menten kinetic parameters) were performed using GraphPad Prism v. 5.03 software (GraphPad Software, San Diego, CA., USA). […]
# (§4) After protein precipitation, the samples were centrifuged for 10 min with 10,000 g at 4 °C. The supernatant was then collected and transferred to vials for LC–MS/MS analysis. For BCH and gabapentin, cells were also lysed with 0.1 M NaOH, an aliquot was taken from the lysates, and perchloric acid (PCA) was added to precipitate the proteins. The samples were then centrifuged, and the supernatant was diluted 1:10 with H20 with 0.1% formic acid including the IS and transferred to vials for analysis.
# (§5) The samples were analyzed with LC–MS/MS coupled with an Agilent 1200 series Rapid Resolution LC System (Agilent Technologies, Waldbronn, Germany) and an Agilent 6410 Triple Quadrupole with electrospray ionization (ESI) (Agilent Technologies, Palo Alto, CA, USA). […] The aqueous mobile phase was 0.1% formic acid in water (A), while the organic mobile phase was 0.1% formic acid in acetonitrile (B). […] For compound 4: 0–4 min 10% → 90% B, 4–6 min 90% B, 6–6.1 min 90% → 10%, 6.1–9 min 10%. For compound 5: 0–1 min 20% → 95% B, 1–4 min 95%, 4–4.1 min 95% → 20%, 4.1–7 min 20%. For compounds 6 and 9: 0–2 min 10% → 95%, 2–6 min 95%, 6–6.1 min 95% → 10%, 6.1–9 min 10%. For compound 8: 0–1 min 20% → 80%, 1–5.2 min 80%, 5.2–5.3 min 80% → 20%, 5.3–9 min 20%.
# [4] = target: T2, LAT1 in MCF-7 human breast cancer cells (Homo sapiens, UniProt Q01650); assay: cis-inhibition of [14C]-L-leucine uptake in MCF-7 cells; assay type: cell-based; conditions: for inhibition at 50 µM: MCF7, MCF-7 cells, 50 μM compound; for IC50: MCF-7 cells
# T2 construct: wild-type MCF-7 human breast cancer cell line; endogenous in cells; host or cells: MCF-7 human breast cancer cells (wild type)
# T2 sequence (Q01650 whole entry): as the sequence (Q01650 whole entry) above
# T2 sequence (P08195 102-630 partner): as the sequence (P08195 102-630 partner) above
# Protocol: Cells were cultured in DMEM (Gibco, ThermoFisher Scientific, Waltham, MA, USA) supplemented with L-glutamine (2 mM; ThermoFisher Scientific, Waltham, MA, USA), heat-inactivated fetal bovine serum (10%; Gibco, ThermoFisher Scientific, Waltham, MA, USA), penicillin (50 U/mL)-streptomycin (50 μg/mL) solution (ThermoFisher Scientific, Waltham, MA, USA), and hygromycin B solution (100 μg/mL) for transfected cells. HEK-hLAT1 and HEK-MOCK cells (passages 7–20) were seeded at a density of 5 × 10^5 cells/wells onto 24-well plates. The cells were used in the characterization, competition, and uptake studies 2 days after seeding. MCF-7 cells were seeded at a density of 1 × 10^5 and were used in the competition studies 1 day after seeding. The culture medium was removed, and the cells were washed with prewarmed Hanks’ balanced salt solution (HBSS; 125 mM NaCl, 4.8 mM KCl, 1.2 mM MgSO4, 1.2 mM KH2PO4, 1.3 mM CaCl2, 5.6 mM D-glucose, and 25 mM HEPES, pH 7.4). The cells were then incubated with HBSS at 37 °C for 10 min before the experiments.
# as §1
# hLAT1/4F2hc [5] = target: T1, hLAT1/4F2hc; assay: Concentration-dependent cellular uptake into HEK-hLAT1 cells (LC-MS/MS, Michaelis-Menten); assay type: cell-based; conditions: difference in uptake HEK-hLAT1 vs HEK-MOCK, with docking poses; 2-100 μM curves
# hLAT1/4F2hc [6] = target: T1, hLAT1/4F2hc; assay: as above; assay type: cell-based; conditions: for Vmax / Km: HEK-hLAT1 cells, compounds 1-12; for Vmax: 2-400 μM, 10 min; for Km: read-out: Km
# Protocol: as §2, §3, §4, §5
# MCF-7 cells = conditions: MCF-7 cells, previous studies; cited from earlier work
SMILES,inhibition at 50 µM [4],IC50 [4],"inhibition at 50 µM (hLAT1/4F2hc [2]; 50 μM compound, compounds 1-12)",IC50 (hLAT1/4F2hc [2]; compounds 1-12),interaction class with LAT1 (interaction and transportability) (hLAT1/4F2hc [5]),Km (hLAT1/4F2hc [6]),"[14C]-L-Leucine uptake inhibition % (50μM) (hLAT1/4F2hc [2]; 50 μM compound, compounds 1-12)",potency for hLAT1 relative to HEK-MOCK (Km ratio) (hLAT1/4F2hc [6]; Km 111 μM HEK-hLAT1 vs 277 μM HEK-MOCK),Vmax (uptake rate) in HEK-hLAT1 cells relative to HEK-MOCK cells (hLAT1/4F2hc [6]; ratio of Vmax values),"inhibition at 50 µM (HEK-MOCK cells [1]; 10 min, 50 μM compound, 0.76 μM [14C]-L-leucine, 10 min, read-out: [14C]-L-Leucine uptake inhibition % (50μM))",IC50 (HEK-MOCK cells [1]; read-out: IC50 of [14C]-L-leucine uptake),"inhibition at 50 µM (hLAT1/4F2hc [2]; 50 μM compound, 0.76 μM [14C]-L-leucine, 10 min, known substrates)",IC50 (hLAT1/4F2hc [2]; known substrates),"Vmax (HEK-MOCK cells [3]; known LAT1 substrates, 2-400 μM, n = 3)","Km (HEK-MOCK cells [3]; known LAT1 substrates, n = 3)",Vmax (hLAT1/4F2hc [6]),Km (HEK-MOCK cells [3]; compounds 1-12),"Vmax (HEK-MOCK cells [3]; compounds 1-12, 2-400 μM)",Vmax (MCF-7 cells)
"NC1(C(=O)O)CC2CCC1C2 (centres unmarked) [BCH, reference compound]",,,,,,,,,,5.8 ± 1%,203 µM,51.8 ± 2.1%,28 µM,2.6±0.6 nmol/min/mg of protein,155 ± 50 µM,,,,
N[C@@H](Cc1cccc(C(=O)NCCc2ccc(O)c(O)c2)c1)C(=O)O [Compound 3],,3.3 ± 1.3 µM,4.27 ± 3.94%,> 100 µM,highest interactions,,,,,,,,,,,,,,< 3 pmol/min/mg
CNC(=O)COc1ccc(-c2c(C#N)c(NC(=O)c3cccc(C[C@H](N)C(=O)O)c3)n3c(nc4ccccc43)c2C#N)cc1 [Compound 6],48 ± 12%,,29 ± 2.8%,> 100 µM,medium interactions,,,,,,,,,,,,201 ± 344 µM,74±92 pmol/min/mg of protein,

# Now from value to molecule, other results behind:
inhibition at 50 µM [4],IC50 [4],"inhibition at 50 µM (hLAT1/4F2hc [2]; 50 μM compound, compounds 1-12)",IC50 (hLAT1/4F2hc [2]; compounds 1-12),interaction class with LAT1 (interaction and transportability) (hLAT1/4F2hc [5]),Km (hLAT1/4F2hc [6]),"[14C]-L-Leucine uptake inhibition % (50μM) (hLAT1/4F2hc [2]; 50 μM compound, compounds 1-12)",potency for hLAT1 relative to HEK-MOCK (Km ratio) (hLAT1/4F2hc [6]; Km 111 μM HEK-hLAT1 vs 277 μM HEK-MOCK),Vmax (uptake rate) in HEK-hLAT1 cells relative to HEK-MOCK cells (hLAT1/4F2hc [6]; ratio of Vmax values),SMILES,"inhibition at 50 µM (HEK-MOCK cells [1]; 10 min, 50 μM compound, 0.76 μM [14C]-L-leucine, 10 min, read-out: [14C]-L-Leucine uptake inhibition % (50μM))",IC50 (HEK-MOCK cells [1]; read-out: IC50 of [14C]-L-leucine uptake),"inhibition at 50 µM (hLAT1/4F2hc [2]; 50 μM compound, 0.76 μM [14C]-L-leucine, 10 min, known substrates)",IC50 (hLAT1/4F2hc [2]; known substrates),"Vmax (HEK-MOCK cells [3]; known LAT1 substrates, 2-400 μM, n = 3)","Km (HEK-MOCK cells [3]; known LAT1 substrates, n = 3)",Vmax (hLAT1/4F2hc [6]),Km (HEK-MOCK cells [3]; compounds 1-12),"Vmax (HEK-MOCK cells [3]; compounds 1-12, 2-400 μM)",Vmax (MCF-7 cells)
66 ± 3.9%,3.3 ± 1.3 µM,8.1 ± 6.9%,> 100 µM,highest interactions,105 ± 17 µM,,,,N[C@@H](Cc1cccc(NC(=O)c2ccccc2O)c1)C(=O)O [Compound 1],,,,,,,3714±371 pmol/min/mg of protein,10 ± 2.7 µM,94±5.4 pmol/min/mg of protein,
,81 ± 1.4 µM,,> 100 µM,highest interactions,111 ± 30 µM,no inhibition,more than two-fold,around three,CCCC(CCC)C(=O)Nc1cccc(C[C@H](N)C(=O)O)c1 [Compound 4],,,,,,,1027 pmol/min/mg of protein and 1027±170 pmol/min/mg of protein,277 µM,292 pmol/min/mg of protein and 292±710 pmol/min/mg of protein,
69 ± 4.3%,20 ± 1.3 µM,20 ± 2.5%,57 µM,medium interactions,,,,,CC(C)Cc1ccc(C(C)C(=O)Nc2cccc(C[C@H](N)C(=O)O)c2)cc1 (some centres unmarked) [Compound 7],,,,,,,,,,
